Data published in ChEMBL document CHEMBL4507276 (2021).

Experiments:
[1] = molecular target: Alpha-2B adrenergic receptor (Homo sapiens) (UniProt P18089); details: Compound concentration 10.0 uM
[2] = molecular target: Cysteinyl leukotriene receptor 1 (Homo sapiens) (UniProt Q9Y271); test: LTD4/H Cerep selectivity data (BI); details: Compound concentration 20.0 uM
[3] = molecular target: Serine/threonine-protein kinase N1 (Homo sapiens) (UniProt Q16512); test: PKN1 Invitrogen selectivity data (BI); details: Compound concentration 3.0 uM
[4] = molecular target: Tyrosine-protein kinase JAK2 (Homo sapiens) (UniProt O60674); test: JAK2 Invitrogen selectivity data (BI); details: Compound concentration 3.0 uM
Sequence of Tyrosine-protein kinase JAK2 (Homo sapiens) (O60674 whole entry): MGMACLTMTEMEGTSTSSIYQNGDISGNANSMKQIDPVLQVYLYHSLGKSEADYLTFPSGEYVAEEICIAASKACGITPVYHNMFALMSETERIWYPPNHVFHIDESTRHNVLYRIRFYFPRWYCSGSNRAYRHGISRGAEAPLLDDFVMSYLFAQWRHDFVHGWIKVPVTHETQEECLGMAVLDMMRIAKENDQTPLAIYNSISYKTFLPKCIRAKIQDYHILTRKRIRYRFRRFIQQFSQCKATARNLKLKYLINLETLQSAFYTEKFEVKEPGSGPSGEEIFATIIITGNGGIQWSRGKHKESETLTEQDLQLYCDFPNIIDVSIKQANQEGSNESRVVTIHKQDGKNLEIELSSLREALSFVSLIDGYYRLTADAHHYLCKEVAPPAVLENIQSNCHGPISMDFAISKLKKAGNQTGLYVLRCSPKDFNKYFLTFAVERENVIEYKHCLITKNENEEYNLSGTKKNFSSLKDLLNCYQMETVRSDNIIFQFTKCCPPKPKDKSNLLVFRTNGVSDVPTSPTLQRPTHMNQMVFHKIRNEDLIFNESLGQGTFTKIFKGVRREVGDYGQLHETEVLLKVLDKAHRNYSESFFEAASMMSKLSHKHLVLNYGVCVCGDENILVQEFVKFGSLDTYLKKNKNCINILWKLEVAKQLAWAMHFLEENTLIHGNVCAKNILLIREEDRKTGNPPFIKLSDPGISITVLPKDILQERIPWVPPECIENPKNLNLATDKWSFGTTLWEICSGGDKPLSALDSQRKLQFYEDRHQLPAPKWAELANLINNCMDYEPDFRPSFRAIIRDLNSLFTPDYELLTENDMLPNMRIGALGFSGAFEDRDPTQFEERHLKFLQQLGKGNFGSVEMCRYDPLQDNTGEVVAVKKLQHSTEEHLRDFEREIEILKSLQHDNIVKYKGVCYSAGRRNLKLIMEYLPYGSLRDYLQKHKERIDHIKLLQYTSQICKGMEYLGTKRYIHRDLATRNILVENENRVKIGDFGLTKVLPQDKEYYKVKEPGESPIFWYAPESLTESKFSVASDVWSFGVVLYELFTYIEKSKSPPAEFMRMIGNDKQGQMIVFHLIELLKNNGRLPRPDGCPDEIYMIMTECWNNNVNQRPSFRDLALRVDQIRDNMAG

[5] = molecular target: Sodium-dependent serotonin transporter (Homo sapiens) (UniProt P31645); test: 5HTTRANS/HU Eurofins-Panlabs selectivity data (BI); details: Compound concentration 10.0 uM
Sequence of Sodium-dependent serotonin transporter (Homo sapiens) (P31645 whole entry, looked up): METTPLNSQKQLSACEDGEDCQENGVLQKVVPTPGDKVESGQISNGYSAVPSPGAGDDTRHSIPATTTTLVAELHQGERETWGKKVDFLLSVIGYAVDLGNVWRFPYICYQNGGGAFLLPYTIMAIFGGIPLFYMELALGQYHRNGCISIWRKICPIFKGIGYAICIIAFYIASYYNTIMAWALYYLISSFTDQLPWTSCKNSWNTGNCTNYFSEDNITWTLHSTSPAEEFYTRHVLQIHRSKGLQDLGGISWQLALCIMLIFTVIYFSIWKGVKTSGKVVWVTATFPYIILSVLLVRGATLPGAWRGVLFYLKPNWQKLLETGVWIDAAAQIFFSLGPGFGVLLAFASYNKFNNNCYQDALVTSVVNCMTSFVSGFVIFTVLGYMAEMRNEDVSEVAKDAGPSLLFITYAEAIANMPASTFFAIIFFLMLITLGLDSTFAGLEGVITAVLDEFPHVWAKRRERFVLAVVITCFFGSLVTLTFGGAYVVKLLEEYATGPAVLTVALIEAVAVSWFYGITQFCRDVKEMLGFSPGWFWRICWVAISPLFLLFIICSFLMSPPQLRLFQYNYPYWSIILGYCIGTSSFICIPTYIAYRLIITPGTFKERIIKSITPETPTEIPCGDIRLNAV

[6] = molecular target: Testis-specific serine/threonine-protein kinase 2 (Homo sapiens) (UniProt Q96PF2); test: STK22B Invitrogen selectivity data (BI); details: Compound concentration 3.0 uM
Sequence of Testis-specific serine/threonine-protein kinase 2 (Homo sapiens) (Q96PF2 whole entry): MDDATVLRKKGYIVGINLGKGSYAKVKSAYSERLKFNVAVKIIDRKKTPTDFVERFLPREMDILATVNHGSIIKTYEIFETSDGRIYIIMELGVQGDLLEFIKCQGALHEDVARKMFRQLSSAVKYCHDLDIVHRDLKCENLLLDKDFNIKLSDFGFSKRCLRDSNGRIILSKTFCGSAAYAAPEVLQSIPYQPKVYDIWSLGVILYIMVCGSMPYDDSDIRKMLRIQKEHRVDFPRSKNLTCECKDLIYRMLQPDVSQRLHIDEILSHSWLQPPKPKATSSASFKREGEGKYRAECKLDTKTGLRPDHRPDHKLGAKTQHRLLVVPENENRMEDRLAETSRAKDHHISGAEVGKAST

[7] = molecular target: T1, Serine/threonine-protein kinase Chk1 (Homo sapiens) (UniProt O14757); test: CHEK1 Invitrogen selectivity data (BI); details: Compound concentration 3.0 uM
T1 sequence (whole entry): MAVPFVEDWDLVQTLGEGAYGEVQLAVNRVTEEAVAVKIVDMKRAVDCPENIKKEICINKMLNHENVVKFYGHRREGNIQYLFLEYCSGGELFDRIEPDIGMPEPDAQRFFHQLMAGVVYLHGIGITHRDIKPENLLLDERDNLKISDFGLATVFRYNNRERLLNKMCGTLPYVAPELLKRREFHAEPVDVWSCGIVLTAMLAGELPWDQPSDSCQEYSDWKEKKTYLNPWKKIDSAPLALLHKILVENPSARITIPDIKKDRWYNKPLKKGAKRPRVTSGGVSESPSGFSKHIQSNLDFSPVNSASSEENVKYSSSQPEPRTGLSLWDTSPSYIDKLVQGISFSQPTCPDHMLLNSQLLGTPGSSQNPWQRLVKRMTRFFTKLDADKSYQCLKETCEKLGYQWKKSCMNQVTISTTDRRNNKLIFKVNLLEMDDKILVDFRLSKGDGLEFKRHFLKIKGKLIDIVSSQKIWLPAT

[8] = molecular target: Serine/threonine-protein kinase Chk2 (Homo sapiens) (UniProt O96017); test: CHEK2 Invitrogen selectivity data (BI); details: Compound concentration 3.0 uM
Sequence of Serine/threonine-protein kinase Chk2 (Homo sapiens) (O96017 whole entry): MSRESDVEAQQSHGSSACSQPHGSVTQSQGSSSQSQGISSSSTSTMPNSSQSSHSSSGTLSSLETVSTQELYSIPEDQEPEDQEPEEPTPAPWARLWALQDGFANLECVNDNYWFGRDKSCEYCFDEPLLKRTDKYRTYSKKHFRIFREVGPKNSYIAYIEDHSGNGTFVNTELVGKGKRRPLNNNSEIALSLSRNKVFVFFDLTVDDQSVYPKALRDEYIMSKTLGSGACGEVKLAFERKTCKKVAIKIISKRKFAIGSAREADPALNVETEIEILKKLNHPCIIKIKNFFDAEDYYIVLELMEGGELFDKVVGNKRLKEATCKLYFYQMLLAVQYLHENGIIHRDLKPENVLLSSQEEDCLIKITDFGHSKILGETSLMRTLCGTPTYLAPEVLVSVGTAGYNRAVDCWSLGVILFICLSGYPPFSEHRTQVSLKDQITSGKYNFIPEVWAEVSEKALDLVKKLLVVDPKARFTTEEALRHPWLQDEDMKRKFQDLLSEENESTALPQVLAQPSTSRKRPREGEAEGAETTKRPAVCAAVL

[9] = molecular target: Protein kinase C epsilon type (Homo sapiens) (UniProt Q02156); test: PRKCE Invitrogen selectivity data (BI); details: Compound concentration 3.0 uM
Sequence of Protein kinase C epsilon type (Homo sapiens) (Q02156 whole entry): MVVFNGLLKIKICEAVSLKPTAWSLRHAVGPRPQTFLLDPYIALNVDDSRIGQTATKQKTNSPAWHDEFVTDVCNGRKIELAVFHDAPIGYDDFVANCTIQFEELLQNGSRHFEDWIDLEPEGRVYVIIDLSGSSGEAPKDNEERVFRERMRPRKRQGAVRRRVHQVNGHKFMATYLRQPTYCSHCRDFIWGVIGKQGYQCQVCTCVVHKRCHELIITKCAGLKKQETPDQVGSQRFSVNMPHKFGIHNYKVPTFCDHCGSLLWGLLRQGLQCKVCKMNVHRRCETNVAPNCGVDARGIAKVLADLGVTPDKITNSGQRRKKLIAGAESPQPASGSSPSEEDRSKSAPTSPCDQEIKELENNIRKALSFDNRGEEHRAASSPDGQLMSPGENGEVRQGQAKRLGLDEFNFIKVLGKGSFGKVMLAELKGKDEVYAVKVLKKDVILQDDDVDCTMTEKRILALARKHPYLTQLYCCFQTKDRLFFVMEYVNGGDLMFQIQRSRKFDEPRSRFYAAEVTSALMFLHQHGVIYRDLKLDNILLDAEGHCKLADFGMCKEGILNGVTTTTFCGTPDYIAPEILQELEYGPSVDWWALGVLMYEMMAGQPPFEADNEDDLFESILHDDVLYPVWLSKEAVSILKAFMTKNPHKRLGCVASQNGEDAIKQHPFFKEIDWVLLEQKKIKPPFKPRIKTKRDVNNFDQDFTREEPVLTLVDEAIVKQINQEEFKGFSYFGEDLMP

[10] = molecular target: T2, Alpha-2A adrenergic receptor (Homo sapiens) (UniProt P08913); test: ALPHA2A/HU Cerep selectivity data (BI); details: Compound concentration 20.0 uM
T2 sequence (whole entry): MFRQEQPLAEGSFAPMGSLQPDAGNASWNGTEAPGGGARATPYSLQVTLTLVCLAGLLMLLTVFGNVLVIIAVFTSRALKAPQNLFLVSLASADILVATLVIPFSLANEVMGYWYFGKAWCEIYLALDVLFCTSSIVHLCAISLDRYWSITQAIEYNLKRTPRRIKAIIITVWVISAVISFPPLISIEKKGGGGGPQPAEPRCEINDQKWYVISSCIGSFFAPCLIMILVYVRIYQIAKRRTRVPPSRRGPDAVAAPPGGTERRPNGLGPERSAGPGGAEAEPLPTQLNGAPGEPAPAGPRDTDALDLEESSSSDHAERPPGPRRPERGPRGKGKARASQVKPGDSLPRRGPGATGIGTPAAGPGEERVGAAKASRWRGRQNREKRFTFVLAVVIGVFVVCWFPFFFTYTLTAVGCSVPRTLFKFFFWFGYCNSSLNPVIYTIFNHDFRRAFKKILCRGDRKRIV

[11] = molecular target: Mu-type opioid receptor (Homo sapiens) (UniProt P35372); test: MU/HU Eurofins-Panlabs selectivity data (BI); details: Compound concentration 10.0 uM
Sequence of Mu-type opioid receptor (Homo sapiens) (P35372 whole entry): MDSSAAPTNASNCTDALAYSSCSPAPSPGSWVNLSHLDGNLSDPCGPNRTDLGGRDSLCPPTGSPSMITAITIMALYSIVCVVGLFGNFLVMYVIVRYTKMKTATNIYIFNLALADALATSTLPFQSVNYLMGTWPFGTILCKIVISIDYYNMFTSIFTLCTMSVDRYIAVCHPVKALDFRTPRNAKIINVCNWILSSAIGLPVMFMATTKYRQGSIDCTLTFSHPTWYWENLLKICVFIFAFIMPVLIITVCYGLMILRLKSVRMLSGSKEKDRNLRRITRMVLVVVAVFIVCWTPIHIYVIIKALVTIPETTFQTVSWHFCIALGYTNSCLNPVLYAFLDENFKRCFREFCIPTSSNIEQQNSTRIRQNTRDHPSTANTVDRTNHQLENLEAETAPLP

[12] = system: Hepatocyte growth factor receptor (Homo sapiens), P08581 [M1250T]; test: MET M1250T Invitrogen selectivity data (BI); details: Compound concentration 3.0 uM
[13] = molecular target: T3, Ephrin type-A receptor 1 (Homo sapiens) (UniProt P21709); test: EPHA1 Invitrogen selectivity data (BI); details: Compound concentration 3.0 uM
T3 sequence (whole entry): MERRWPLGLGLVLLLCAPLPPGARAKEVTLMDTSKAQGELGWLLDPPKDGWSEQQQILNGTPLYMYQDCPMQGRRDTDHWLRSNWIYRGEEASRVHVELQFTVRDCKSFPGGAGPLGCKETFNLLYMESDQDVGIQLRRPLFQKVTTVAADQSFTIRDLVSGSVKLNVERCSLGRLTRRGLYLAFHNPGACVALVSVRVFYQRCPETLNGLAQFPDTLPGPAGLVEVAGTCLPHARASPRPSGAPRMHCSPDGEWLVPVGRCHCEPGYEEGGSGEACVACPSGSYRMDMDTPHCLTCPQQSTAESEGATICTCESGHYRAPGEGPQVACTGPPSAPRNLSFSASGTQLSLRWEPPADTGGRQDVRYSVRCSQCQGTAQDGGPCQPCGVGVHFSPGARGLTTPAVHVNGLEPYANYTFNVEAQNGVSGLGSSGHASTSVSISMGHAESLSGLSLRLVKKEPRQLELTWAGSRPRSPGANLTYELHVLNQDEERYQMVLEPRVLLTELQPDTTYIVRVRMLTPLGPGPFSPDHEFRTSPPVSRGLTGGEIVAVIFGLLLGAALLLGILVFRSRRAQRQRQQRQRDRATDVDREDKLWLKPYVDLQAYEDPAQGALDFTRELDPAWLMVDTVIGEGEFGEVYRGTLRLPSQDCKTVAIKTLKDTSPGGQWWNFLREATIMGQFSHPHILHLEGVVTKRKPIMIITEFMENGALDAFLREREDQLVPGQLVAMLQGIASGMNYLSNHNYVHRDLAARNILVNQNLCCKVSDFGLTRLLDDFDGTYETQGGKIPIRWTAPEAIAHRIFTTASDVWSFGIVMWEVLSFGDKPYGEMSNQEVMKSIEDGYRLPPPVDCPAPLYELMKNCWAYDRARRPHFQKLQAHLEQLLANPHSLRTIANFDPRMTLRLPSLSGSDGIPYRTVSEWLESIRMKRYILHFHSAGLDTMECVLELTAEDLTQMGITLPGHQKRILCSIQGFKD

Sequence of Cysteinyl leukotriene receptor 1 (Homo sapiens) (Q9Y271 whole entry): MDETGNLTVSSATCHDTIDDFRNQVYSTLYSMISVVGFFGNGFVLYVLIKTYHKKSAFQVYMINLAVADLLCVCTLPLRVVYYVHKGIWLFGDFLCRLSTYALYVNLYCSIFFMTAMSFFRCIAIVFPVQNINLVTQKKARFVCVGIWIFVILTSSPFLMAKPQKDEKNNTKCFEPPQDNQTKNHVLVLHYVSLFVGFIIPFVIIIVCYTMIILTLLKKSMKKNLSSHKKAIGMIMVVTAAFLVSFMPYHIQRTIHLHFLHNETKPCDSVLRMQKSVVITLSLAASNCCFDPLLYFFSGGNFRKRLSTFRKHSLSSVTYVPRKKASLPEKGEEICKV
Sequence of Alpha-2B adrenergic receptor (Homo sapiens) (P18089 whole entry): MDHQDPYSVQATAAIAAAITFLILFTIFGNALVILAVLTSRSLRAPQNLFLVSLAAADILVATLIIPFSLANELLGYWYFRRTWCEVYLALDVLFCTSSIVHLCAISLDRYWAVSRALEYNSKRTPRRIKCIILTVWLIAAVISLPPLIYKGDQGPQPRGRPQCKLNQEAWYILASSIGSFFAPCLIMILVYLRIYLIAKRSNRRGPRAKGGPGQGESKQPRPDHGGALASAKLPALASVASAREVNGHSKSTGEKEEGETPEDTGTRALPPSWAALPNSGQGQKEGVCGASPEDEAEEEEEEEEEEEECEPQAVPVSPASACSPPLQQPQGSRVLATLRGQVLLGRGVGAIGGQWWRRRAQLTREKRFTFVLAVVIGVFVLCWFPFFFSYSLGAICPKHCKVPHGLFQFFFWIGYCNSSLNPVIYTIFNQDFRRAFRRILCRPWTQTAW

CN(C)C(=O)Cn1cc(-c2nc(C3(c4ccc(-c5cnc(N)nc5)cc4)CC3)no2)cn1 [BI 0153]
inactive: inhibition [1] -3.57%

CN(C)C(=O)Cn1cc(-c2nc([C@@](C)(c3ccc(-c4cnc(N)nc4)cc3)C3CC3)no2)cn1 [BI 665915]
inactive: residual activity [2] 101% | residual activity [3] 98.5% | residual activity [4] 91% | residual activity [5] 106% | residual activity [6] 93% | residual activity [7] 96% | residual activity [8] 99% | residual activity [9] 86.5% | residual activity [10] 101% | residual activity [11] 112% | residual activity [12] 105% | residual activity [13] 89%
